Test results from US20260201008A1, “SECRETIN-DERIVED GLP1R SELECTIVE AGONISTS” (GUBRA A/S, priority 2023, published 2026).
Read-outs that look alike come from different tables or passages of the source. Numbered stars: 1 amine (or outer) side, 2 acyl side, 3 side chain; on linkers, the order of the positions; unused ones are H or OH. Square brackets hold non-standard residues; d marks the D form. Side chains are listed from the residue outwards. Peptide text beside a SMILES is read from it. * marks the point of attachment. C20 diacid = O=C(O)CCCCCCCCCCCCCCCCCCC(=O)*; γGlu = O=C(O)[C@H](CCC(=O)[*:2])N[*:1]; AEEA = NCCOCCOCC(=O)O; Aib = CC(C)(N)C(=O)O

Tests used:
[1] = target: GLP1R (Homo sapiens, UniProt P43220); assay: hGLP1R potency, cAMP accumulation in CHO-K1 cells stably overexpressing hGLP1R; format: cell-based; set-up: host or cells: CHO-K1; conditions: for SCTR EC50/GLP1R EC50 ratio: selectivity for hGLP1R over hSCTR, cAMP accumulation in CHO-K1 cells; for Selectivity: SCTR EC50/GLP1R EC50 ratio
In short: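 In the presence of 0.5 mM IBMX, compounds stimulated the cells for 30 minutes at room temperature. Accumulated cAMP was then detected by TR-FRET, with EC50 values fitted by variable-slope nonlinear regression.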

[2] = Fibril formation of crude library peptides (Thioflavin T); format: physicochemical; set-up: key: average ThT fluorescence emission at 480 nm (ex 450 nm), raw units; conditions: Physical stability of peptides
In short: (§1)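 Fibril formation is scored as average ThT fluorescence from duplicate samples monitored for 72 h at 40° C with shaking stress. Turbidity is the absorbance at 600 nm taken before heating. Peptide concentration was 267 μM at pH 4.0 or pH 7.0.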

[3] = Turbidity of crude library peptides (absorbance at 600 nm); format: physicochemical; conditions: Physical stability of peptides
In short: as §1

[4] = target: SCTR (Homo sapiens, UniProt P47872); assay: hSCTR potency, cAMP accumulation in CHO-K1 cells stably overexpressing hSCTR; format: cell-based; set-up: alternatively Euroscreen ES-712-AF; FAST-0161L; host or cells: CHO-K1
In short: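 In this Gs cAMP assay, stably transfected CHO-K1 hSCTR cells were stimulated at room temperature for 30 min in IBMX-containing buffer. Time-resolved FRET gave the signal. Replicates were increased when the top concentration changed or EC50 values differed 5-fold.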

[5] = cAMP accumulation, CHO-K1 cells overexpressing hGLP1R, read-out: hGLP1R pEC50 (converted)
[6] = cAMP accumulation, CHO-K1 cells overexpressing hSCTR, read-out: hSCTR pEC50 (converted)

Sequence of SCTR (P47872 23-440): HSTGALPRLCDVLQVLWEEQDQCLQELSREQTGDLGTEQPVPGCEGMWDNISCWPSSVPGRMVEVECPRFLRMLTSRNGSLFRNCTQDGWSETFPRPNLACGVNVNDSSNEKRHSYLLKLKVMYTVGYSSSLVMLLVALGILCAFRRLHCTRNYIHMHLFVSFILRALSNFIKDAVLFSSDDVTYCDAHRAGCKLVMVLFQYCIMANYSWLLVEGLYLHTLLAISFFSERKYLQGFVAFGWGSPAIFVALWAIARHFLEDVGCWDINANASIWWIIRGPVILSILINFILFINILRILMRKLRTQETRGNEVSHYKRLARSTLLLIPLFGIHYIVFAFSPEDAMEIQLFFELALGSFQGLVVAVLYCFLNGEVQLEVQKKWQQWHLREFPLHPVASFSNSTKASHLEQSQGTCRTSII
Sequence of GLP1R (P43220 24-463): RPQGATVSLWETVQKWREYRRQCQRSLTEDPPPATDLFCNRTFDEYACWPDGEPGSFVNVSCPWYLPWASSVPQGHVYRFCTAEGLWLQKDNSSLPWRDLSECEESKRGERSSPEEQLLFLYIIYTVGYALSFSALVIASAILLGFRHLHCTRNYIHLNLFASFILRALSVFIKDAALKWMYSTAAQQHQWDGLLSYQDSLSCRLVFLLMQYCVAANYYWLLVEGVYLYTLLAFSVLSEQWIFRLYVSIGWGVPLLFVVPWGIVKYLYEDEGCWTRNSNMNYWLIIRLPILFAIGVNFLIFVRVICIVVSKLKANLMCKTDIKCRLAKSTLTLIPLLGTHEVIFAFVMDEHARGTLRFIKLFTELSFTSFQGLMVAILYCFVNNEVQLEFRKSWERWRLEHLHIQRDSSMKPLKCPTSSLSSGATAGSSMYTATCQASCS

| EC50 [1, 5] | SCTR EC50/GLP1R EC50 ratio [1] | Fibril formation [2] | Turbidity (pH 7) [3] | EC50 [4, 6] | EC50 ([1]; cAMP accumulation, CHO-K1 cells overexpressing hGLP1R, read-out: pEC50 hGLPR1 (converted)) | EC50 ([4]; cAMP accumulation, CHO-K1 cells overexpressing hSCTR, read-out: pEC50 hSCTR (converted)) | SMILES | EC50 [1] | Selectivity [1] | EC50 [4] |
| --- | --- | --- | --- | --- | --- | --- | --- | --- | --- | --- |
| 0.0158 nM | 164097 | 93630 | 0.29 | 2510 nM | – | – | CC[C@H](C)[C@H](NC(=O)[C@H](Cc1ccccc1)NC(=O)[C@H](CCCNC(=N)N)NC(=O)[C@H](CCC(N)=O)NC(=O)[C@H](CC(C)C)NC(=O)[C@H](C)NC(=O)[C@H](C)NC(=O)CNC(=O)[C@H](CCC(=O)O)NC(=O)[C@H](CC(C)C)NC(=O)[C@H](CC(C)C)NC(=O)[C@H](Cc1ccc(O)cc1)NC(=O)[C@H](CO)NC(=O)[C@@H](NC(=O)[C@H](CC(=O)O)NC(=O)[C@H](CO)NC(=O)[C@@H](NC(=O)[C@H](Cc1ccccc1)NC(=O)[C@@H](NC(=O)CNC(=O)[C@H](CCC(=O)O)NC(=O)C(C)(C)NC(=O)[C@@H](N)Cc1c[nH]cn1)[C@@H](C)O)[C@@H](C)O)[C@@H](C)CC)C(=O)N[C@@H](CCC(N)=O)C(=O)N[C@@H](Cc1c[nH]c2ccccc12)C(=O)N[C@@H](CC(C)C)C(=O)N[C@H](C(N)=O)C(C)C [compound 112] (H-H[Aib]EGTFTSDISYLLEGAALQRFIQWLV-NH2) | – | – | – |
| 0.0158 nM | 100392 | 11918 | 0.74 | 1580 nM | – | – | CC[C@H](C)[C@H](NC(=O)[C@H](Cc1ccccc1)NC(=O)[C@H](CCCNC(=N)N)NC(=O)[C@H](CCC(N)=O)NC(=O)[C@H](CC(C)C)NC(=O)[C@H](C)NC(=O)[C@H](C)NC(=O)CNC(=O)[C@H](CCC(=O)O)NC(=O)[C@H](CC(C)C)NC(=O)[C@H](CC(C)C)NC(=O)[C@H](Cc1ccc(O)cc1)NC(=O)[C@H](CO)NC(=O)C(C)(C)NC(=O)[C@H](CC(=O)O)NC(=O)[C@H](CO)NC(=O)[C@@H](NC(=O)[C@H](Cc1ccccc1)NC(=O)[C@@H](NC(=O)CNC(=O)[C@H](CCC(=O)O)NC(=O)C(C)(C)NC(=O)[C@@H](N)Cc1c[nH]cn1)[C@@H](C)O)[C@@H](C)O)C(=O)N[C@@H](CCC(N)=O)C(=O)N[C@@H](Cc1c[nH]c2ccccc12)C(=O)N[C@@H](CC(C)C)C(=O)N[C@H](C(N)=O)C(C)C [compound 106] (H-H[Aib]EGTFTSD[Aib]SYLLEGAALQRFIQWLV-NH2) | – | – | – |
| 15.8 nM | 1467 | 6144 | 0.20 | 20000 nM | – | – | CC[C@H](C)[C@H](NC(=O)[C@H](Cc1ccccc1)NC(=O)[C@H](CCCNC(=N)N)NC(=O)[C@H](CCC(N)=O)NC(=O)[C@H](CC(C)C)NC(=O)[C@H](C)NC(=O)[C@H](C)NC(=O)CNC(=O)[C@H](CCC(=O)O)NC(=O)[C@H](CC(C)C)NC(=O)[C@H](CC(C)C)NC(=O)[C@H](Cc1ccc(O)cc1)NC(=O)[C@H](CO)NC(=O)[C@@H]1CCCN1C(=O)[C@H](CC(=O)O)NC(=O)[C@H](CO)NC(=O)[C@@H](NC(=O)[C@H](Cc1ccccc1)NC(=O)[C@@H](NC(=O)CNC(=O)[C@H](CCC(=O)O)NC(=O)C(C)(C)NC(=O)[C@@H](N)Cc1c[nH]cn1)[C@@H](C)O)[C@@H](C)O)C(=O)N[C@@H](CCC(N)=O)C(=O)N[C@@H](Cc1c[nH]c2ccccc12)C(=O)N[C@@H](CC(C)C)C(=O)N[C@H](C(N)=O)C(C)C [compound 128] (H-H[Aib]EGTFTSDPSYLLEGAALQRFIQWLV-NH2) | – | – | – |

Further lines, the compound ahead of its results:

| SMILES | EC50 [1, 5] | SCTR EC50/GLP1R EC50 ratio [1] | Fibril formation [2] | Turbidity (pH 7) [3] | EC50 [4, 6] | EC50 ([1]; cAMP accumulation, CHO-K1 cells overexpressing hGLP1R, read-out: pEC50 hGLPR1 (converted)) | EC50 ([4]; cAMP accumulation, CHO-K1 cells overexpressing hSCTR, read-out: pEC50 hSCTR (converted)) | EC50 [1] | Selectivity [1] | EC50 [4] |
| --- | --- | --- | --- | --- | --- | --- | --- | --- | --- | --- |
| CC(C)C[C@H](NC(=O)[C@H](CCC(=O)O)NC(=O)[C@H](CCCCNC(=O)COCCOCCNC(=O)COCCOCCNC(=O)CC[C@H](NC(=O)CCCCCCCCCCCCCCCCCCC(=O)O)C(=O)O)NC(=O)[C@H](CC(C)C)NC(=O)[C@@H](NC(=O)[C@H](CO)NC(=O)[C@@H](NC(=O)[C@H](CC(=O)O)NC(=O)[C@H](CO)NC(=O)[C@@H](NC(=O)[C@H](Cc1ccccc1)NC(=O)[C@@H](NC(=O)CNC(=O)[C@H](CCC(=O)O)NC(=O)C(C)(C)NC(=O)[C@@H](N)Cc1c[nH]cn1)[C@@H](C)O)[C@@H](C)O)C(C)C)[C@@H](C)O)C(=O)N[C@@H](C)C(=O)N[C@@H](C)C(=O)N[C@@H](C)C(=O)N[C@@H](CCC(N)=O)C(=O)N[C@@H](CCCNC(=N)N)C(=O)N[C@@H](Cc1ccccc1)C(=O)N[C@@H](CC(C)C)C(=O)N[C@@H](CCC(=O)O)C(=O)N[C@@H](Cc1c[nH]cn1)C(=O)N[C@@H](CC(C)C)C(=O)N[C@H](C(N)=O)C(C)C [compound 11] (H-H[Aib]EGTFTSDVSTLK([AEEA-AEEA-γGlu-C20 diacid])ELAAAQRFLEHLV-NH2) | – | – | 7854 | 0.08 | – | – | – | 0.0501 nM | 11347 | 631 nM |
| CC(C)C[C@H](NC(=O)[C@H](Cc1ccccc1)NC(=O)[C@H](CCCNC(=N)N)NC(=O)[C@H](CCC(N)=O)NC(=O)[C@@H](NC(=O)[C@H](C)NC(=O)[C@H](C)NC(=O)[C@@H](NC(=O)[C@H](CCC(=O)O)NC(=O)[C@H](CCCCNC(=O)COCCOCCNC(=O)COCCOCCNC(=O)CC[C@H](NC(=O)CCCCCCCCCCCCCCCCCCC(=O)O)C(=O)O)NC(=O)[C@H](CC(C)C)NC(=O)[C@H](Cc1ccc(O)cc1)NC(=O)[C@H](CO)NC(=O)[C@@H](NC(=O)[C@H](CC(=O)O)NC(=O)[C@H](CO)NC(=O)[C@@H](NC(=O)[C@H](Cc1ccccc1)NC(=O)[C@@H](NC(=O)CNC(=O)[C@H](CCC(=O)O)NC(=O)C(C)(C)NC(=O)[C@@H](N)Cc1c[nH]cn1)[C@@H](C)O)[C@@H](C)O)C(C)C)[C@@H](C)O)[C@@H](C)O)C(=O)N[C@@H](CCC(=O)O)C(=O)N[C@@H](Cc1c[nH]cn1)C(=O)N[C@@H](CC(C)C)C(=O)N[C@H](C(N)=O)C(C)C [compound 4] (H-H[Aib]EGTFTSDVSYLK([AEEA-AEEA-γGlu-C20 diacid])ETAATQRFLEHLV-NH2) | – | – | 32222 | 0.08 | – | – | – | 0.00794 nM | 13928 | 100 nM |
| CC(C)C[C@H](NC(=O)[C@H](Cc1ccccc1)NC(=O)[C@H](CCCNC(=N)N)NC(=O)[C@H](CCC(N)=O)NC(=O)[C@@H](NC(=O)[C@H](C)NC(=O)[C@H](C)NC(=O)[C@H](CCC(=O)O)NC(=O)[C@H](CCC(=O)O)NC(=O)[C@H](CCCCNC(=O)COCCOCCNC(=O)COCCOCCNC(=O)CC[C@H](NC(=O)CCCCCCCCCCCCCCCCCCC(=O)O)C(=O)O)NC(=O)[C@H](CC(C)C)NC(=O)[C@@H](NC(=O)[C@H](CO)NC(=O)[C@@H](NC(=O)[C@H](CC(=O)O)NC(=O)[C@H](CO)NC(=O)[C@@H](NC(=O)[C@H](Cc1ccccc1)NC(=O)[C@@H](NC(=O)CNC(=O)[C@H](CCC(=O)O)NC(=O)C(C)(C)NC(=O)[C@@H](N)Cc1c[nH]cn1)[C@@H](C)O)[C@@H](C)O)C(C)C)C(C)C)[C@@H](C)O)C(=O)N[C@@H](CCC(=O)O)C(=O)N[C@@H](Cc1c[nH]cn1)C(=O)N[C@@H](CC(C)C)C(=O)N[C@H](C(N)=O)C(C)C [compound 53] (H-H[Aib]EGTFTSDVSVLK([AEEA-AEEA-γGlu-C20 diacid])EEAATQRFLEHLV-NH2) | – | – | 5164 | 0.08 | – | 0.00501 nM | 63.1 nM | – | 10988 | – |
| CC(C)C[C@H](NC(=O)[C@H](Cc1ccccc1)NC(=O)[C@H](CCCNC(=N)N)NC(=O)[C@H](CCC(N)=O)NC(=O)[C@H](C)NC(=O)[C@H](C)NC(=O)[C@H](C)NC(=O)C(C)(C)NC(=O)[C@H](CCC(=O)O)NC(=O)[C@H](CCCCNC(=O)COCCOCCNC(=O)COCCOCCNC(=O)CC[C@H](NC(=O)CCCCCCCCCCCCCCCCCCC(=O)O)C(=O)O)NC(=O)[C@H](CC(C)C)NC(=O)[C@@H](NC(=O)[C@H](CO)NC(=O)[C@@H](NC(=O)[C@H](CC(=O)O)NC(=O)[C@H](CO)NC(=O)[C@@H](NC(=O)[C@H](Cc1ccccc1)NC(=O)[C@@H](NC(=O)CNC(=O)[C@H](CCC(=O)O)NC(=O)C(C)(C)NC(=O)[C@@H](N)Cc1c[nH]cn1)[C@@H](C)O)[C@@H](C)O)C(C)C)[C@@H](C)O)C(=O)N[C@@H](CCC(=O)O)C(=O)N[C@@H](Cc1c[nH]cn1)C(=O)N[C@@H](CC(C)C)C(=O)N[C@H](C(N)=O)C(C)C [compound 43] (H-H[Aib]EGTFTSDVSTLK([AEEA-AEEA-γGlu-C20 diacid])E[Aib]AAAQRFLEHLV-NH2) | – | – | 18355 | 0.09 | – | – | – | 0.01 nM | 36686 | 316 nM |
